Key:
[1] = tested on: polyclonal sera raised against 4-phosphopyrazol-1-yl alanine; test: Dot blot of BSA-glutaraldehyde conjugated analogues with affinity depleted rabbit and rat sera; type: binding; settings: BSA-glutaraldehyde conjugated analogue; rabbit and rat sera affinity depleted with histidine-KLH
Protocol: Solutions of the BSA-amino acid conjugates of histidine, tele-phosphohistidine, and the analogues, were first diluted 1000 fold. These solutions as well as the commercially available solutions of BSA conjugated to phosphoserine, phosphothreonine, and phosphotyrosine were spotted (2 μL) onto a PVDF membrane. Once the spots were dry, the membrane was rinsed with methanol before being blocked in 5% non-fat dry milk in 10 mM Tris-HCl pH 8.0, 17 mM NaCl (TBS), Tween (0.05%) (5% NFDM/TBST) for 1 hour and then incubated with the rat sera raised against the analogue of interest at 1/1000 dilution in 5% NFDM/TBST overnight at 4° C. The membrane was then washed using TBS-Tween (0.05%) 3 times for 15 minutes, before being incubated with a 1/2000 fold dilution of goat anti-rat IgG-HRP conjugate in 5% NFDM/TBST for 60 minutes at room temperature. Membranes were then washed 3 times for 15 minutes using TBS-Tween (0.05%) and then treated with SuperSignal West Dura Chemiluminescent Substrate for 3 minutes. […]
In addition, further antibodies against 4-phosphopyrazol-1-yl alanine were raised as described in sections 2.1.1 to 2.1.4 above, and dot blot analysis conducted as described in section 2.5. […] The data establishes that 4-phosphopyrazol-1-yl alanine amide and 4-phosphothiazol-1-yl alanine amide are detected by the polyclonal sera raised against 4-phosphopyrazol-1-yl alanine.

| melting point | Structure (SMILES) | detection by polyclonal sera raised against 4-phosphopyrazol-1-yl alanine (dot blot) [1] |
| --- | --- | --- |
| – | C[C@H](N[SH]1C=NC(P(=O)(O)O)=C1)C(N)=O (some centres unmarked) [4-phosphothiazol-1-yl alanine amide] | detected |
| 270 °C | N[C@@H](Cc1ccc(P(=O)(O)O)cn1)C(=O)O [Compound 6] | – |
| 200 °C | N[C@@H](Cn1cc(P(=O)(O)O)cn1)C(=O)O [Compound 12] | – |
| 260 °C | N[C@@H](Cc1cc(P(=O)(O)O)cs1)C(=O)O [Compound 17] | – |
| 196 to 199 °C (dec.) | N[C@@H](Cc1ncc(P(=O)(O)O)s1)C(=O)O [Compound 20, (S)-2-Amino-3-(5-phosphoryl-1,3-thiazol-2-yl)propanoic acid] | – |
